Experimental data from patent publication US20200155503A1, “COMPOSITIONS FOR USE FOR TREATING CUTANEOUS LEISHMANIASIS” (BIONOOX SA, priority 2017, published 2020).
Like-named read-outs stand apart in the source and are kept apart here.

Columns and labels:
[1] = system: Neutrophil; experiment: Neutrophil cell viability by flow cytometry with DAPI staining; type: cell-based
Experimental: Neutrophil cell viability was assessed by flow cytometry with DAPI staining pas 24 hours incubation with dihydroquercetin (5, 15 and 25 μM), 3-(2-chloroacetamido) ethyl benzoate (1, 2 and 4 μM) and bisabolol (0.05, 0.1 and 0.5% w/v).

[2] = system: Leishmania major mCherry; experiment: Parasite killing in bone marrow-derived macrophages infected with Leishmania major mCherry (flow cytometry, microscopy); type: cell-based; conditions: for macrophage mediated parasite killing: BMDM infected with L. major mCherry, compounds tested individually
Experimental: The direct microbicidal effect of compounds against the Leishmania parasites in infected macrophages and neutrophils was evaluated.
Bone marrow-derived macrophages (BMDM) were cultured for 7 days, harvested and infected with Leishmania major mCherry for 2 hrs. Then the non-phagocytosed parasites were washed and dihydroquercetin, 3-(2-chloroacetamido) ethyl benzoate or bisabolol were added at different concentrations and incubated at different time points. • Parasites killing was evaluated by flow cytometry and microscopy. • NO production was assessed by Griess reaction from the supernatants.

[3] = system: Neutrophils infected with L. major mCherry; experiment: ROS production by neutrophils infected with L. major mCherry (Luminol); type: cell-based; conditions: MOI 1:10, Luminol for 90 min
Experimental: Neutrophils were isolated by Magnetic-activated cell sorting (MACS) and infected with L. major mCherry at a multiplicity of infection ratio (MOI) of 1:10.
Dihydroquercetin, […] ethyl benzoate or bisabolol at different concentrations were added and stimulated for 24 hours.
Kinetic of ROS production was measured by Luminol for 90 min.

[4] = system: Leishmania parasites; experiment: Individual evaluation against Leishmania parasites; conditions: evaluated individually

SMILES	neutrophil viability ([1]; 24 hours incubation, 1, 2 and 4 μM)	direct microbicidal effect against L. major ([2]; infected macrophages and neutrophils, different concentrations)	ROS production [3]	cytotoxicity (neutrophil cell viability) ([1]; 24 hours incubation, 5, 15 and 25 μM)	effect against Leishmania parasites [4]	macrophage mediated parasite killing [2]	cytotoxicity (neutrophil cell viability) [1]
CCOC(=O)c1cccc(NC(=O)CCl)c1 [3-(2-chloroacetamido) ethyl benzoate]	induced a reduction in neutrophil viability	had a direct microbicidal effect against L. major	decrease in ROS production				
O=C1c2c(O)cc(O)cc2OC(c2ccc(O)c(O)c2)C1O (stereo not shown) [Dihydroquercetin]				no cytotoxicity	no or limited effect	no impact on macrophage mediated parasite killing	
Cc1c(C)c2c(c(C)c1O)CC[C@@](C)(CCC[C@H](C)CCC[C@H](C)CCCC(C)C)O2 [alpha-tocopherol, (2R)-2,5,7,8-Tetramethyl-2-[(4R,8R)-(4,8,12-trimethyltridecyl)]-6-chromanol]					no or limited effect		
CC(C)=CCCC(C)(O)C1CC=C(C)CC1 (stereo not shown) [bisabolol, 6-methyl-2-(4-methyl-3-cyclohexen-1-yl)-5-hepten-2-ol]					no or limited effect	no impact on macrophage mediated parasite killing	no cytotoxicity
